Measured values published in US9375421B2, “Pharmaceutical intervention for treating an apraxia of speech in children” (Gilrose Pharmaceuticals, LLC, priority 2011, dated 2016).

Assays:
[1] = test system: children with apraxia of speech; experiment: Speech and language assessment of children with apraxia of speech before and after a psychostimulant dose (case examples); assay type: in vivo, human
Excerpt: Assessment of the verbal ability of a subject can include but is not limited to measures of all the domains described herein: nonspeech oral-motor, speech production, prosody, voice, speech perception, language, and, for older children, linguistic/literacy skills. Of these, (a) inconsistent errors on consonants and vowels in repeated productions of syllables or words, (b) lengthened and disrupted coarticulatory transitions between sounds and syllables, (c) inappropriate prosody, especially in the realization of lexical or phrasal stress; (d) the inability to see a new word and to have the ability to identify and sequence in time and space the sounds not only by themselves but in relationship to one another to be able to produce to transform from a symbol, orthographic to sound representation but to do it according to the rules of language knowing where to divide the written symbols into units; (e) the inability to not only transform into sounds, but sounds in relationship in terms of speed and volume to have that word in the context have that meaning that the author of the written word wanted to convey. The cultural and linguistic background of each subject may optionally be assessed.
When treating a child who is incapable of communication, the child is tested with respect to language skills as well as visual-spatial comprehension skills. For example, a child may be asked to pronounce a few single syllable words, such as “ma, ma” “ba, ba” or to described a picture or read a few words. At the same time, the child's body motions and emotional interactions with other people are observed.
For example, an improvement in a subject may include but is not limited to, an increase in the number of correct phonemes when speaking, a more normal time spent enunciating words, the number of times the last consonant of a word is used correctly, the proper sequencing of words and events, appropriate sound intensity.
Depending where the patient is on the apraxia pyramid, for example vocalization, words, prosody, the number of words in the sentence, the number or types of words in the sentence, the grammar syntax, prosody, measuring the child to his/her previous ability 20-30 minutes ago in addition to medication.

[2] = test system: children with good nonverbal development not functioning well with reading and language skills; experiment: Three minute reading test before and after administering the medicine (FIG. 2 and FIG. 3); assay type: in vivo, human; conditions: most of the nine children; 5 mg; pre- versus after administering
Description: FIG. 2 is a comparison of the reading abilities of a group of children with a various diagnosed symptoms between pre-treatment and after-treatment with one dosage of 5-7.5 mg of methylphenidate.
FIG. 3 is a comparison of the reading abilities of another group of children with a various diagnosed symptoms between pre-treatment and after-treatment with one dosage of 5-7.5 mg of methylphenidate.
Metrics for quantitative assessment of the language ability include words per minute, three minute reading test, sentence complexity such as length in words, complexity of construction, etc. The number of correctly read syllables minuses the number of mistakes divided by the months of reading training may be used to assess the language ability development.
In reference to FIG. 2 and FIG. 3. […] They were tested for three minute reading before and after administering the medicine. The mistakes in pronouncing syllables were counted. The correct pronunciation ratios (divided by the total number of syllables read) were compared between the pre-administering the drug and after administering the drug. […] Most of them had least 40% improvement.

Row | SMILES | speech and language (Example 9A, fifth visit) ([1]; Participant 9A, 10 mg/day after the methylphenidate regimen, about two weeks later) | speech and comprehension (Example 9B) ([1]; Participant 9B, same regimen as 9A (methylphenidate 5 then 10 mg/day, then Focalin 10 mg/day)) | speech ability after dose (Example 1) ([1]; 11 year autistic boy, 10 mg tablets, thirty minutes after dose) | speech improvement (Example 9A, third visit) ([1]; Participant 9A, 5 mg/day, after a month) | comprehension (Example 9A, fourth visit) ([1]; Participant 9A, 10 mg/day, about a month later) | reading ability after dose (Example 5) ([1]; child with dyslexia, 10 mg, half an hour later) | speech ability after dose (Example 7) ([1]; child, chromosome 15 duplication, 2.5 mg, thirty minutes later) | speech and motor ability after dose (Example 8) ([1]; child, 5 mg, after 30 minutes) | speech ability after dose (Example 2) ([1]; child, one dosage of 5 mg, half an hour later) | follow up on speech after repeated dosing (Example 7) ([1]; same child, 2.5 mg a day for two to three months) | improvement of correct pronunciation ratio, three minute reading [2] [%]
1 | COC(=O)[C@H](c1ccccc1)[C@H]1CCCCN1 [Focalin®, dextro-threo-methylphenidate] | able to answer questions about their daily life in clear speech and language | an improvement in speech and comprehension |  |  |  |  |  |  |  |  | 
2 | COC(=O)C(c1ccccc1)C1CCCCN1 (centres unmarked) [methylphenidate] |  |  | able to imitate “ma ma ma” | no significant improvement in speech | able to understand the story line of a children's book | able to read a sentence with smooth pronunciations | able to make sounds of “ma mi”, mimic “bye”, “bye” and babble with sounds | able to repeat two syllable words | able to follow instructions to mimic the sounds “ma” “ma” “ga” “ga” | good progress in speaking sounds | ≥ 40
